Reference: PMC5751115, “Screening In Vitro Targets Related to Diabetes in Herbal Extracts from Peru: Identification of Active Compounds in Hypericum laricifolium Juss. by Offline High-Performance Liquid Chromatography” (International Journal of Molecular Sciences, 2017)

Experiments:
[1] = DPPH free radical scavenging assay; conditions: for IC50 / Antioxidants DPPH IC50 (μM): Table 3, isolated compounds, NA is not active; for IC50: read-out: Antioxidants DPPH IC50
Procedure: The DPPH free radical scavenging activity was determined as previously described with slight modifications. […] After 15 min incubation in the darkroom, the absorbance change at 570 nm was measured on a microplate reader (EL800 Universal Microplate reader, BioTek Instruments, Winooski, VT, USA). L-Ascorbic acid was used as positive control.

[2] = target: rat lens aldose reductase (RLAR) (Rattus norvegicus, UniProt P07943); experiment: Rat lens aldose reductase (RLAR) assay; assay type: biochemical; conditions: for IC50 / AR IC50 (μM): Table 3, isolated compounds, means ± SD (n = 3), NA is not active; for IC50: read-out: AR IC50
Procedure: The rat lenses (RL) were prepared as follows: the RL were removed from the eyes from 10-week-old Sprague-Dawley rats (weight = 250–280 g) and frozen until required. The rats were housed in a standardized laboratory environment with a 12 h light/12 h dark cycle at constant room temperature (22 ± 1 °C) and humidity (6 ± 5%) before experimentation. All animals had free access to water and food.
The AR inhibitory activities were evaluated using RLAR. Prior to analysis, the lenses were homogenized in 0.1 M phosphate buffer saline (pH 6.2) and subsequently centrifuged at 10,000× g for 30 min at 4 °C. The rat lens aldose reductase (RLAR)-containing supernatant was then collected. A substrate comprising 531 μL 0.1 M potassium buffer (pH 7.0), 90 μL NADPH solution (1.6 mM in potassium buffer), 90 μL RLAR homogenate (6.5 U/mg), 90 μL ammonium sulfate solution (4 M in potassium buffer), and 90 μL DL-glyceraldehyde (25 mM in potassium buffer) was placed into a 1.0-mL cuvette and mixed with 9 μL sample (1 mg/mL dissolved in DMSO). RLAR activity was assessed spectrophotometrically by measuring the decrease in NADPH absorption at 340 nm over a 4 min period.

[3] = ABTS free radical scavenging assay; conditions: for IC50 / Antioxidants ABTS IC50 (μM): Table 3, isolated compounds, NA is not active; for IC50: read-out: Antioxidants ABTS IC50
Procedure: The ABTS free radical scavenging activity was determined using ABTS radical cations (ABTS^+) with slight modifications [34]. Briefly, potassium persulfate (3.5 mM) and ABTS diammonium salt (2.0 mM) were mixed, diluted in distilled water, and subsequently allowed to stand in the dark at room temperature for 24 h before use, to allow free radical generation. To determine the scavenging activity, the absorbance was recorded at 750 nm using an EL-800 Universal microplate reader (BioTek Instrument Inc., Winooski, VT, USA) after incubating the sample solutions (10 µL, 1 mg/mL, 0.5 mg/mL in methanol) with ABTS solution (290 µL) for 10 min in a 96-well plate. Trolox was used as a positive control.

[4] = Offline ABTS-HPLC analysis; conditions: peak area reduction in HL 70% MeOH extract after ABTS
Procedure: Offline ABTS-HPLC was investigated by modifying a previously reported protocol. Briefly, 10 μL of 70% methanol extract from HL (20 mg/mL) was mixed with 140 μL ABTS solution that was prepared one day in advance. The mixture was then incubated at room temperature for 10 min and subsequently filtered through a 0.45 μm filter. The filtrate was analyzed by HPLC (Section 3.9). The methanol extract of HL (20 mg/mL in MeOH was used as control. The detector monitored the eluent at a wavelength of 300 nm and the % QR was calculated as described in Section 3.11.

[5] = target: T1, Human recombinant AR (HRAR) (Homo sapiens, UniProt P15121); experiment: HRAR ultrafiltration-HPLC assay; assay type: binding; conditions: peak in HL 70% MeOH extract 0.1 mg/mL; HRAR 3.9 μM
T1 construct: purchased Wako Pure Chemical Industries Co. (Osaka, Japan)
Procedure: The AR Inhibitors (ARIs) present in HL were profiled using a newly developed AR ultrafiltration assay. Specifically, the HL sample (final concentration = 0.1 mg/mL) was incubated with 0.6 M ammonium sulfate and 3.9 μM HRAR (Human recombinant AR) in a total volume of 300 μL at 37 °C for 30 min. The incubated mixture was then filtered by centrifugation at 5167× g for 30 min at room temperature using a Microcon YM-10 centrifugal filter unit. The filtrate was subsequently analyzed by HPLC (Section 3.9). The sample incubated without HRAR was used as control.

[6] = Offline DPPH-HPLC analysis; conditions: peak area reduction in HL 70% MeOH extract after DPPH
Procedure: The DPPH radical assay was modified by an offline DPPH-HPLC assay. […] After incubation (15 min) in the dark room, the mixture was filtered through a 0.45-μm membrane and subsequently analyzed by HPLC (Section 3.9). The sample incubated with methanol was used as control. The decreases in peak area were expressed as the % quantitative reduction (% QR), calculated from the equation: % QR = (A − B)/A × 100%, where A and B are the HPLC peak areas of the compound incubated without and with the DPPH methanol solution, respectively.

[7] = tested on: α-glucosidase; experiment: α-Glucosidase inhibitory assay; assay type: biochemical
Procedure: α-Glucosidase inhibitory activity was determined using a previously reported method with slight modifications. The initial concentration of the enzyme solution was 0.015 mg/mL in 0.1 M phosphate buffer (pH 6.9) and the initial concentration of the substrate solution was 1 mM in the same phosphate buffer. The enzyme solution was mixed in a clear 96-well microplate (flat bottom) and the reaction was initiated by the addition of the substrate to the solution. The plates were incubated at 37 °C for 10 min.

[8] = tested on: α-glucosidase; experiment: α-Glucosidase ultrafiltration-HPLC assay; assay type: binding; conditions: peak in HL 70% MeOH extract 0.1 mg/mL; α-glucosidase 3.9 μM
Procedure: The α-glucosidase present in the HL was profiled using a newly developed α-glucosidase ultrafiltration assay. Specifically, the HL 30 μL sample (final concentration = 0.1 mg/mL) was incubated with α-glucosidase (3.9 μM) in PBS (300 μL, pH 7.0) at 37 °C for 30 min. The incubated mixture was then filtered by centrifugation at 5167× g for 30 min at room temperature using a Microcon YM-10 centrifugal filter unit (Millipore, Bedford, MA, USA). The filtrate was subsequently analyzed by HPLC on a Dionex system (Dionex, Sunnyvale, CA, USA) consisting of a P850 pump, an ASI-100 automated sample injector, a Synergi Hydro-RP 80A column (150 mm × 4.6 mm, 4 μm; Phenomenex, Torrance, CA, USA) maintained at 30 °C, and a UVD170S detector. The injection volume was 10 μL and the flow rate of the mobile phase was 0.7 mL/min. The mobile phase compositions were as follows: 0.1% trifluoroacetic acid (A-line) and methanol (B-line). The gradient elution system was modified as follows: 0–35 min, starting with 5% B-line, programmed to reach 40% B-line at 15 min using a linear gradient, followed by 100% B-line from 15–35 min. The detector monitored the eluent at a wavelength of 254 nm. The sample incubated without α-glucosidase was used as control.

[9] = means ± SD (n = 3), listed as Quercetin (7)

For `O=C1O[C@H]([C@@H](O)CO)C(O)=C1O` [L-Ascorbic, L-ascorbic acid, reference compound], the “DPPH Inhibition (%)” value ([1]; Table 2, L-ascorbic acid at 71 μg/mL) was 99.1 ± 0% and the “DPPH IC50” value ([1]; Table 2, means ± SD (n = 3)) was 17.6 ± 0.1 µg/mL.

For `O=C(O)c1ccc(O)c(O)c1` [Compound 1, protocatechuic acid], the IC50 ([1]; means ± SD (n = 3)) was 263.4 ± 0.2 µM, the IC50 [2] was 16.9 ± 1.9 µM and the IC50 ([3]; means ± SD (n = 3)) was 9.7 ± 0.9 µM.

In the case of `Cc1c(C)c2c(c(C)c1O)CCC(C)(C(=O)O)O2` (centres unmarked) [Trolox, 6-hydroxy-2,5,7,8-tetramethylchroman-2-carboxylic acid, reference compound], the “ABTS IC50” value ([3]; Table 2, means ± SD (n = 3)) is reported as 4.6 ± 0.1 µg/mL, the “ABTS Inhibition (%)” value ([3]; Table 2, trolox at 17 μg/mL) is reported as 100 ± 0.1% and the IC50 ([3]; means ± SD (n = 3)) is reported as 18.8 ± 0.5 µM.

In the case of `O=c1c(O)c(-c2ccc(O)c(O)c2)oc2cc(O)cc(O)c12` [Quercetin, quercetin, reference compound], the inhibition at 10 µg/mL ([2]; read-out: AR Inhibition (%)) is reported as 83.7 ± 2.6%.

For `O=c1c(O)c(-c2ccc(O)cc2)oc2cc(O)cc(O)c12` [Compound 8, kaempferol], the IC50 ([1]; means ± SD (n = 3)) was 326 ± 3.3 µM, the “quantitative reduction percentage (QR), offline ABTS-HPLC” value (from here on “quantitative reduction percentage (QR)”) [4] was 54% and the “total binding degree (TBD), HRAR ultrafiltration-HPLC” value [5] was < 20%. The “% quantitative reduction (QR), offline DPPH-HPLC” value [6] was 51%, the IC50 [2] was 9.7 ± 0.5 µM and the IC50 ([3]; means ± SD (n = 3)) was 191.8 ± 1.1 µM.

For `O=C(O)[C@H]1O[C@@H](Oc2c(-c3ccc(O)cc3)oc3cc(O)cc(O)c3c2=O)[C@H](O)[C@@H](O)[C@@H]1O` [Compound 6, kaempferol 3-O-glucuronide], the IC50 ([1]; means ± SD (n = 3)) was 58.8 ± 2.1 µM, the “total binding degree (TBD), HRAR ultrafiltration-HPLC” value [5] was 30% and the IC50 [2] was 6 ± 1.1 µM. For the same compound, the IC50 ([3]; means ± SD (n = 3)) was 11 ± 0.2 µM.

With `COc1cc(C(=O)O)ccc1O` [Compound 4, vanillic acid] the “Antioxidants DPPH IC50 (μM)” value ([1]; means ± SD (n = 3)) was “inactive”, the “AR IC50 (μM)” value [2] was “inactive” and the “Antioxidants ABTS IC50 (μM)” value ([3]; means ± SD (n = 3)) was “inactive”.

In the case of `O=C(O)/C=C/c1ccc(O)c(O)c1` [Compound 5, caffeic acid], the IC50 ([1]; means ± SD (n = 3)) is reported as 47.2 ± 0.1 µM, the “quantitative reduction percentage (QR)” value [4] is reported as 76% and the IC50 [2] is reported as 28.3 ± 0.9 µM. The IC50 ([3]; means ± SD (n = 3)) was 7.2 ± 1.1 µM.

For `O=C(/C=C/c1ccc(O)c(O)c1)O[C@@H]1C[C@](O)(C(=O)O)C[C@@H](O)[C@H]1O` [Compound 3, chlorogenic acid], the “total binding degree (TBD), HRAR ultrafiltration-HPLC” value [5] was ~ 20% and the IC50 [2] was 0.23 µM.

For `O=C(O)c1ccc(O)cc1` [Compound 2, p-hydroxybenzoic acid], the “Antioxidants DPPH IC50 (μM)” value ([1]; means ± SD (n = 3)) was “inactive”, the “AR IC50 (μM)” value [2] was “inactive” and the “Antioxidants ABTS IC50 (μM)” value ([3]; means ± SD (n = 3)) was “inactive”.

For `C[C@H]1O[C@H](O[C@H]2[C@H](O)[C@@H](O)[C@@H](O[C@H]3[C@H](O)[C@@H](O)C(O)O[C@@H]3CO)O[C@@H]2CO)[C@H](O)[C@@H](O)[C@@H]1N[C@H]1C=C(CO)[C@@H](O)[C@H](O)[C@H]1O` (some centres unmarked) [Acarbose, acarbose, reference compound], the “α-Glucosidase Inhibition (%)” value ([7]; Table 2, 500 μg/mL) was 55.82 ± 2.3%.

With `O=c1c(O)c(-c2ccc(O)c(O)c2)oc2cc(O)cc(O)c12` [Compound 7, quercetin] the IC50 [1, 9] was 0.33 µM, the “quantitative reduction percentage (QR)” value [4] was > 80% and the “total binding degree (TBD), α-glucosidase ultrafiltration-HPLC” value [8] was 61.57%. For the same compound, the “% quantitative reduction (QR), offline DPPH-HPLC” value [6] was 42.8%, the IC50 [3, 9] was 0.33 ± 0.6 µM and the α-glucosidase percentage inhibition ([7]; isolated compound, Figure 2, 50 μg/mL) was 91%.
